Data set [1] concerns MMP-1. Description: Western blotting of MMP-1 protein in UV-irradiated hDF cells. It is filed as cell-based, human. The note with it: various concentrations. Here is the method:
(§1) The primary human dermal fibroblast (hDF) cell line was obtained from Chonnam National University Medical School (Gwangju, Republic of Korea). The cells were cultured at 37° C. and under 5% CO2 using Dulbecco's Modified Eagle's Medium (DMEM, Gibco Laboratories, Grand Island, N.Y., USA) supplemented with 5% fetal bovine serum (Gibco Laboratories, Grand Island, N.Y., USA) and 1% penicillin (100 units/ml)/streptomycin ([…]).
(§2) Philips TL 20W/12 RS fluorescent sun lamp with emission spectra of 280 nm and 380 nm was used as an UV source. The UV intensity at the skin surface was measured using a UV detector (GUVx-T1xGS5-LA2, Genicom Daejeon, Korea). The UV irradiation intensity was 1.0 mW/cm2 at 30 cm from the UV source. The cells were cultured up to 75-80% of culture dish, washed twice with PBS buffer, and irradiated with UV to treat test materials. Thereafter, the cells were continuously cultured in the absence of light until the next analysis. […]

Data set [2] has as its system MMP-3. Description: Real-time RT-PCR of MMP-3 mRNA in UV-irradiated hDF cells. It is filed as cell-based, human. The note with it: cultured 24 hours, relative to GAPDH. Here is the method:
as §1
(§3) Philips TL 20W/12 RS fluorescent sun lamp with emission spectra of 280 nm and 380 nm was used as an UV source. The UV intensity at the skin surface was measured using a UV detector (GUVx-T1xGS5-LA2, Genicom Daejeon, Korea). The UV irradiation intensity was 1.0 mW/cm2 at 30 cm from the UV source. The cells were cultured up to 75-80% of culture dish, washed twice with PBS buffer, and irradiated with UV to treat test materials. Thereafter, the cells were continuously cultured in the absence of light until the next analysis.
(§4) Total RNA was isolated using a Trizol reagent (Invitrogen, Carlsbad, Calif., USA) according to the manufacturer's instructions. […] For the detection of fluorescence during the PCR amplification, SYBR Premix Ex Taq (Takara Bio, Otsu, Japan) was used. […]
(§5) In addition, UV was irradiated, the test materials were treated, cultured for 24 hours, and then the mRNA level of MMPs was analyzed using a real time RT PCR method. […]

In data set [3] the test system is extracellular signal-regulated kinase (Erk). Description: Western blotting of phosphorylated Erk in UV-irradiated hDF cells. It is filed as cell-based, human. The note with it: 20 μM and 50 μM, 2 hours in the absence of light. Here is the method: as §1, §2
For orientation: A western blot detects proteins with antibodies after separation by electrophoresis.

Data set [4] concerns MMP-1. Description: Real-time RT-PCR of MMP-1 mRNA in UV-irradiated hDF cells. The note with it: cultured 24 hours, relative to GAPDH. It is filed as cell-based, human. The procedure:
as §1, §3, §4, §5
(Real-time PCR tracks product formation cycle by cycle.)

Data set [5] relates to intercellular adhesion molecule-1 (ICAM-1). Description: Immunohistochemical staining for ICAM-1 in dorsal skin of UV-irradiated mice. It is filed as in vivo, mouse. The following applies: 5 mg/kg daily oral, compared with the UV-only-irradiated group. The procedure: (§6) In order to irradiate animals with UV, the minimal erythema dose (MED) of the dorsal skin of mice was examined first. Minimal erythema dose means the minimum amount of erythema that can be derived with a clear border after 24 hours of irradiation. The mice were irradiated three times a week for 8 weeks with UV. During the first 3 weeks, the dose was increased by 1 MED (herein, 1 MED=30 mJ/cm2), and then 3 MED was maintained thereafter.
(§7) Premature female SKH-1 hairless mice were purchased from Charles River Laboratories (Wilmington, Mass.) and adapted for one week. The mice were housed in air-conditioned rooms in a 12-hour light/12-hour dark cycle to allow them to eat water and food freely. The room temperature was maintained at 23±3° C. and under humidity at 55±15%. All experiments were approved by the Animal Care and Use Committee at Gwangju Institute of Science and Technology.
(§8) After the adaptation period, mice were divided into 4 groups of 6 mice per each group. Each of the groups was as follows:
Chlorophyll a (Ca, Sigma-Aldrich, St Louis, Mo., USA) or pheophorbide a (Pa, Frontier Scientific, Logan, Utah, USA) was dissolved in a solution of 40% polyethylene glycol 400 (Sigma-Aldrich, St Louis, Mo., USA), respectively. As a control, vehicle was prepared with only 40% polyethylene glycol 400 solution and administered to mice in the negative control and positive control groups. […]

For data set [6], the system named is MMP-3. Description: Western blotting of MMP-3 protein in UV-irradiated hDF cells. It is filed as cell-based, human. The following applies: various concentrations. The procedure: as §1, §2
Data set [7] relates to human dermal fibroblast (hDF) cells. Description: Cell viability assay (water soluble tetrazolium) in UV-irradiated hDF cells. It is filed as cell-based. The following applies: UV 20 mJ/cm2, 0, 10, 20, 50 μM, 72 hours in the absence of light. The procedure:
as §1, §3
A water soluble tetrazolium test method was used for cell viability analysis. Quantification of living cells was performed using a […] Ez-cytox Cell Viability Assay Kit (Daeil Lab Co, Seoul, Korea). The formazan dye was analyzed spectrophotometrically by measuring the absorbance at 450 nm using a Chameleon multi-label plate reader (Hidex Personal Life Science, Hidex Oy, Finland). […]

The subject of data set [8] is c-Jun N-terminal kinase (JNK). As to the kind of experiment: Western blotting of phosphorylated JNK and JNK in UV-irradiated hDF cells. It is filed as cell-based, human. The procedure:
as §1, §3
The total protein extracts from the samples were dissolved in lysis buffer (50 mM Tris (pH 7.4), 150 mM NaCl, 1 mM EGTA, 1% NP-40, 0.25% sodium deoxycholate, 1 mM PMSF, and phosphatase inhibitor mixture (Sigma, St. Louis, Mo., USA) and then boiled for 5 minutes. The dissolved proteins were quantitated using Bio-Rad Protein Assay Dye Reagent Concentrate (Bio-Rad Laboratories, Hercules, Calif., USA) and then separated by SDS-PAGE and transferred to a polyvinylidene difluoride (PVDF) membrane (Amersham Pharmacia Biotech, Piscataway, N.J., USA). Membranes were reacted with specific primary antibodies overnight at 4° C., and protein bands were then visualized using secondary antibodies coupled with horseradish peroxidase (HRP) and a chemiluminescence detection kit (Amersham Pharmacia Biotech). […]

Data set [9] relates to dorsal skin of UV-irradiated SKH-1 hairless mice. As to the kind of experiment: Wrinkle evaluation of dorsal skin of UV-irradiated hairless mice (visual grade, negative replica). It is filed as in vivo, mouse. The note with it: UV 8 weeks, 5 mg/kg daily oral; for visual wrinkle grade: clinical images rated by two practitioners; for wrinkle area in replicated images: compared to the control group; for thickness of wrinkles of dorsal skin: compared with the control group. The procedure: as §6, §7, §8
(c) Group of receiving 5 mg/kg daily chlorophyll a with UV irradiation
(d) Group of receiving 5 mg/kg pheophorbide a daily with UV irradiation
(§9) Chlorophyll a (Ca, Sigma-Aldrich, St Louis, Mo., USA) or pheophorbide a (Pa, Frontier Scientific, Logan, Utah, USA) was dissolved in a solution of 40% polyethylene glycol 400 (Sigma-Aldrich, St Louis, Mo., USA), respectively. As a control, vehicle was prepared with only 40% polyethylene glycol 400 solution and administered to mice in the negative control and positive control groups. The administration of test materials was made immediately after UV irradiation.
A digital camera (Sony Cybershot DSC-W570, 5× optical zoom, 16.1 megapixels, Sony Corporation, Tokyo, Japan) was used to obtain a clinical image of the dorsal skin after continuous exposure to low dose UV. The enlarged wrinkles were obtained using DermLite®IIHybridM (3Gen, LLC, San Juan Capistrano, Calif., USA) attached to the digital camera. The wrinkles of the dorsal skin of the mice were graded according to the method described by Bissett et al.. The grades were as follows:
Grade 0—no thick wrinkles;
Grade 1—a few shallow thick wrinkles;
Grade 2—some thick wrinkles;
Grade 3—multiple deep thick wrinkles.
A negatively imprinted replica was used to analyze the wrinkles of the skin, which is described by Ryu et al.. That is, a semi-fluidic silicone polymer was mixed with a catalyst (Imprint II Garant™ Light Body, 3M) and then applied to a dorsal skin sufficiently to penetrate into the wrinkles beyond a contour. This replica was analyzed under standard illumination with an incident angle where the replica was formed and set to produce a reflective shadow proportional to the height of the wrinkles. The captured images were analyzed from a shadow region in the images using image analysis software (ImageJ software, NIH Image, National Institutes of Health, Bethesda, Md., USA; online at: http://rsb.info.nih.gov/ij/).

Data set [10] has the same test system. Description: Histological examination of dorsal skin of UV-irradiated mice (H&E, Masson-trichrome). It is filed as in vivo, mouse. The following applies: 5 mg/kg daily oral; for collagen breakdown in the dermis / infiltration of inflammatory cells in the epidermis and upper dermis: compared with the control group; for infiltration of inflammatory cells in the epidermis and upper dermis: H&E stain; for thickness of the epidermis: Masson-trichrome staining. Here is the method: as §6, §7, §8, §9
Tissue samples taken from the dorsal skin of UV-irradiated mice were fixed in 4% paraformaldehyde and then included in paraffin. Thin sections with a thickness of 4 μm were stained with hematoxylin and eosin solution. To visualize collagen deposition, the sections were stained with Accustain trichrome stain (Sigma-Aldrich, St. Louis, Mo., USA). The epidermal thickness from a junction of the granular keratocytes to a junction of the dermis-epidermis was measured using an i-Solution DT image acquisition and analysis program (IMT 20 i-solution, Vancouver, Canada) and a Leica microscope (Leica, Wetzlar, Germany). To assess the thickness of the epidermis, any of the ten sites on the slide were measured. In […], inflammatory cells from epidermis to subcutaneous fat layer were calculated.

In the case of pheophorbide a, the “MMP-1 protein expression level” value in the data set with MMP-1 [1] is “decreased in proportion to the amount treated”. The “MMP-3 mRNA level” value in the data set on MMP-3 [2] is listed as “significant decrease”. In addition, the “expression level of phosphorylated Erk” value in data set [3] is “decreased”. Further, in the data set on MMP-1 [4], the “MMP-1 mRNA level” value is recorded as “significant decrease”. In addition, in data set [5], the “level of ICAM-1 expression in the epidermis and upper dermis” value is reported as “decreased”. The “MMP-3 protein expression level” value with MMP-3 [6] is “decreased in proportion to the amount treated”. For the same molecule, the cell viability entry in [7] is recorded as “not affected”. Further, in data set [8] (10 μM, 2 hours), the MAPK phosphorylation inhibition entry is “not as much as 20 μM and 50 μM”. In data set [8] (20 μM and 50 μM, 2 hours in the absence of light), the “expression level of phosphorylated JNK” value is on record as “decreased”. In addition, the “basal JNK protein level” value in [8] (2 hours in the absence of light) is recorded as “decreased in proportion to the amount of pheophorbide a”. Besides, in [9], the visual wrinkle grade result is reported as “wrinkles grades were lower”, the “wrinkle area in replicated images” value is recorded as “a decrease in the wrinkle area” and the “thickness of wrinkles of dorsal skin” value is “remarkably reduced”. Further, in data set [10], the “collagen breakdown in the dermis” value is listed as “less collagen breakdown occurred”; the “infiltration of inflammatory cells in the epidermis and upper dermis” value is “reduced”; the “thickness of the epidermis” value is reported as “A decrease in thickness”.
As for `C=Cc1c(C)c2cc3nc(c4c5[n-]c(cc6nc(cc1[n-]2)C(C)=C6CC)c(C)c5C(=O)[C@@H]4C(=O)OC)[C@@H](CCC(=O)OC/C=C(\C)CCC[C@H](C)CCC[C@H](C)CCCC(C)C)[C@@H]3C.[Mg+2]` [chlorophyll a], the “level of ICAM-1 expression in the epidermis and upper dermis” value in data set [5] is reported as “decreased”. For the same molecule, in data set [9], the visual wrinkle grade result was “wrinkles grades were lower”, the “wrinkle area in replicated images” value was “a decrease in the wrinkle area” and the “thickness of wrinkles of dorsal skin” value is recorded as “remarkably reduced”. Further, in data set [10], the “collagen breakdown in the dermis” value was “less collagen breakdown occurred”; the “infiltration of inflammatory cells in the epidermis and upper dermis” value was “reduced”; the “thickness of the epidermis” value is listed as “A decrease in thickness”.

The values above are taken from patent publication US9861568B2, “Composition for improving skin conditions, containing chlorophyll a or pheophorbide a” (GWANGJU INSTITUTE OF SCIENCE AND TECHNOLOGY, priority 2014, dated 2018).
